Biological target: T1, Dimer of Gag-Pol polyprotein [501-599] (Human immunodeficiency virus 1, UniProt P03367)
T1 construct: 501-599
Assay: Protease Inhibition Assay
Conditions: pH 5; 30 °C
Description: Ki values were determined by using a fluorescent substrate (DABCYL-gamma-Abu-[…]EDANS). All incubations were performed at 30°C in 0.1 M sodium acetate 1 M NaCl 1 mM DTT 1 mM EDTA 3% DMSO (pH 5.0) by using 5 uM substrate and the indicated enzyme concentrations ([E]). The enzyme concentration (A280) was determined by absorption measurements.

| Compound | Ki |
| --- | --- |
| CNC(=O)[C@@H](NC(=O)[C@H](OCc1ccc(C2CCCC(=O)C2=O)cc1)[C@H](O)[C@@H](O)[C@@H](OCc1ccc(C2CCCC(=O)C2=O)cc1)C(=O)N[C@H](C(=O)NC)C(C)C)C(C)C (stereo partly drawn) [N1,N6-Bis[(1S)-2-methyl-1-(methylcarbamoyl)pro-pyl](2R,3R,4R,5R)-2,5-bis[4-(3-cyclohexane-1,2-dionyl)benzyloxy]-3,4-dihydroxyhexanediamide] | 300 pM |
| CNC(=O)[C@@H](NC(=O)[C@H](OCc1ccccc1)[C@H](O)[C@@H](O)[C@@H](OCc1ccccc1)C(=O)N[C@H](C(=O)NC)C(C)C)C(C)C [1-Valine Methylamide deriv. 1] | 400 pM |

Reference: BindingDB's records for doi:10.1021/jm9910371 (Uppsala University, 1999)
